From patent US7595395B2, “Gabaergic agents to treat memory deficits” (priority 2005, dated 2009) come the findings set out here.

Where two headings read alike, the source gives them in different places.

The target of assay [1] is T1, α3β3γ2 benzodiazepine receptor GABA(A) isoform (UniProt P18507+P34903).
T1 sequence (P18507 1-475): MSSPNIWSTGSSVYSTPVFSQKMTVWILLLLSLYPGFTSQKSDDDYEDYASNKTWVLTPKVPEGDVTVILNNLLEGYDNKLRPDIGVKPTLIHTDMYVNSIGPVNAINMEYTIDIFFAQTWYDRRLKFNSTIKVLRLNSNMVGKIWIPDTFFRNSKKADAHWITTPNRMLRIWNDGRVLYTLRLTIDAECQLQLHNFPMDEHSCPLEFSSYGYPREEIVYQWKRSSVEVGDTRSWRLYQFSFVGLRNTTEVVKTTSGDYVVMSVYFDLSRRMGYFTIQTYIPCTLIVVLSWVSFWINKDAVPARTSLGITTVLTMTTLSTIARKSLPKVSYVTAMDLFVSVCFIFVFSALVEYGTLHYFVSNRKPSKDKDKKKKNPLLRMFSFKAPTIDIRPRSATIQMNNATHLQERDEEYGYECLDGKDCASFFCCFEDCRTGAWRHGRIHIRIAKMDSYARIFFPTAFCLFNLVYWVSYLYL
T1 sequence (P34903 1-492): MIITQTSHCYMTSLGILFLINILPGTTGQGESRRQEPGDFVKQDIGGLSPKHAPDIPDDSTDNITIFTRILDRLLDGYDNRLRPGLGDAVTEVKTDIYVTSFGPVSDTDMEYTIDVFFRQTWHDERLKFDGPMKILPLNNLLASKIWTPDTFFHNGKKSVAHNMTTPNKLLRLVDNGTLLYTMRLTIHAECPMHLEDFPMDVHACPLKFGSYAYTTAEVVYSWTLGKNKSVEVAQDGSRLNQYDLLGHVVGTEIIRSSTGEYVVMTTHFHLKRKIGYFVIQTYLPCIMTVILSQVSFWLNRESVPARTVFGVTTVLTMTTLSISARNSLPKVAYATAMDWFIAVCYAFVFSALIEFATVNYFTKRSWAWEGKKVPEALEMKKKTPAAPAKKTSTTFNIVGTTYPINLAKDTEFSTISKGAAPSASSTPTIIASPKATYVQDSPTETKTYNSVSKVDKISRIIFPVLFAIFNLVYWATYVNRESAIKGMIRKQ
The experiment in a line: Radioligand competition binding, α3β3γ2 BzR/GABA(A) isoform. Also noted: species or system human and rat. On the procedure: The affinity of all ligands at the 6 major recombinant GABAA/BzR subtypes was measured by competition for [^3H]Ro15-1788 binding to HEK-T cells expressing both human and rat GABAA/Bz receptors of composition α1β2γ2 (α1), α2β2γ2 (α2), α3β2γ2 (α3), α4β2γ2 (α4), α5β2γ2 (α5) and α6β2γ2 (α6). It is well known that the β2 and β3 subunits can be interchanged with no effect on Bz ligand affinity or efficacy. […] These studies are similar to those performed in the laboratory of Bryan Roth who has already expressed the receptors employing the work of Kucken et. al. and Gray et. al.
In brief, for membrane preparations, the cells were scraped on to the ice and diluted into 5 mL of phosphate buffered saline (pH=7.40) and cells pelleted by centrifugation for 5 min. at 4° C. The pellet was resuspended in 1 mL of 50 mM Tris-acetate buffer (pH 7.4) and centrifuged at 18,000 g for 20 min. […] Each pellet were diluted to 6 mL and then 100 μL of membranes were incubated with approximately 1 nM final concentration of [^3H]Ro 15-1788 in a total volume of 250 μL together with serial dilutions of test compound for 90 min. on ice. The membranes were harvested in polyethyleneimine-pretreated Whatman GF/C filters and after drying and addition of scintillation cocktail, counted in a scintillation counter. The cpm retained on the filters was plotted against log concentration (M) and fitted to one site competition equation to obtain the Ki using Graphpad Prizm (V4.0) using the Cheng-Prusoff approximation.
A general note: In a radioligand displacement assay an active substance lowers the binding of a labelled ligand.

For assay [2], the system named is C57B1/6 mice. The experiment in a line: Audio cued fear conditioning. The assay is classed as in vivo. Conditions: scopolamine impairment. From the text: Further, animal data for FIGS. 22-26 were obtained using experimental methodologies described in a previously published reference, Influence of benzodiazepine binding site ligands on fear-conditioned contextual memory European journal of Pharmacology, Volume 426, Issues 1-2, 24 Aug. 2001, Pages 45-54, Timothy M. DeLorey, Richard C. Lin, Brian McBrady, Xiaohui He, James M. Cook, Jelveh Lameh and Gilda H. Loew, which is incorporated by reference as if fully set forth here in its entirety. Selected sections of the reference are provided below:
Male C57B1/6 mice were obtained from Charles Rivers Laboratories (Holister, Calif.) at 6 weeks of age. […] All animal protocols used in this study conform to the guidelines determined by the National Institute of Health (USA) Office for Protection from Research Risks and are approved by the Animal Care and Use Committee of the Palo Alto Veterans Administration Medical Center, Palo, Alto, Calif. […]
Before testing each day, the mice were moved to a holding room and allowed to acclimate for at least 30 min. […] Twenty-four hours later, contextual memory was assessed by placing the mice back into the freshly rescented (0.3% Ammonium hydroxide) conditioning chambers in which they were trained, for a 4-min test period in the absence of footshock. […] Data were analyzed by one-way analysis of variance(ANOVA) using GraphPad PRISM 2.01 (GraphPad Software). […]

[3] abbreviates: read-out: Ki α3, Table I, means of two determinations.
[4] abbreviates: read-out: α3, untitled table of lead compounds, unit inferred.

With `CCOC(=O)c1ncn2c1CN=C(c1ccccc1)c1cc(-c3ccccc3)ccc1-2` [DM-I-81, Ethyl 8-phenyl-6-phenyl-4H-benzo[f]imidazo[1,5-a][1,4]diazepine-3-carboxylate], the Ki in assay [1] (setting [3]) and in assay [1] (setting [4]) was over 2 µM throughout.
`COCc1ncn2c1CN(C)C(=O)c1cc(Cl)ccc1-2` [PWZ-029, methyl(8-chloro-5,6-dihydro-5-methyl-6-oxo-4H-imidazo[1,5-α][1,4]benzodiazepin-3-yl)methyl ether]: the Ki in assay [1] (setting [3]) and in assay [1] (setting [4]) was over 0.3 µM each time.
With `CCc1ccc2c(c1)C(=O)N(C)Cc1c(C(=O)OCCCOC(=O)c3ncn4c3CN(C)C(=O)c3cc(CC)ccc3-4)ncn1-2` [XLi356, 1,3-Bis(8-ethyl-5,6-dihydro-5-methyl-6-oxo-4H-imidazo[1,5a][1,4]benzodiazepine-3-carboxy)propyl diester], the “audio cued memory / audio cued fear conditioning (in words)” value was “not able to reverse this type of memory” in assay [2] (listed as XLI356) and “no activity” in assay [2] (listed as Xli356).
